From US20020091124A1, “2-acyl indole derivatives and their use as antitumor agents” (priority 2000, published 2002)
Where two headings read alike, the source gives them in different places.

Key:
[1] = system: human cervical carcinoma cell line KB/HeLa; experiment: XTT cytotoxicity test, KB/HeLa; format: cell-based
bovine brain tubulin = system: T1, bovine brain tubulin; experiment: Bovine tubulin polymerization assay; format: biochemical; conditions: inhibition of tubulin polymerization; read-out: Tubulin-hemmung/ IC50
T1 construct: The tubulin used in the assay was isolated from bovine brain using cycles of polymerization and depolymerization
Procedure: In an in vitro test, selected compounds were tested for inhibition of polymerization of bovine brain. In this test, tubulin purified by cycles of polymerization and depolymerization, polymerization being initiated by addition of GTP and heating, is used.
The tubulin used in the assay was isolated from bovine brain using cycles of polymerization and depolymerization. […] The appropriate amount of test substance, dissolved in 100% DMSO, is pipetted to this mixture. 10 μl of purified bovine tubulin (50-60 μg of tubulin per well) are then added. […] 200 μl/well of decolorizing solution (25 mM NaOH, 50% ethanol, 0.05 mM EDTA) are finally added using a pipette. Following a 20 minute incubation at room temperature on a shaker (400 rpm), the absorption of 600 nm [sic] is measured in a photometer. What is calculated is the inhibition in % based on the 100% value of a positive control (which contains no test substance), and/or, if a concentration/activity curve is plotted, the lC50 value.

[2] = system: human glioma cell line U118; experiment: XTT cytotoxicity test, U118; conditions: 45 h, read-out: IC50 U118
[3] = system: human glioma cell line A-172; experiment: XTT cytotoxicity test, A-172; conditions: A 172, 45 h, read-out: IC50 A-172
RKO p21 cells = experiment: RKOp21 model, XTT assay; format: cell-based; conditions: Homo sapiens; Table 2; read-out: RKP p21 induced IC50
Excerpt: The model used for examining the cell cycle-specific action was the RKOp21 cell system (M. Schmidt et al. Oncogene19(20):2423-9, 2000). RKO is a human colon carcinoma line in which the cell cycle inhibitor p21^wafl is expressed induced by the ecdysone expression system and leads to an arrest of the cell cycle specifically in G1 and G2. Nonspecific substances inhibit proliferation independently of whether the RKO cell is arrested in G1 or G2 or not. In contrast, cell cycle-specific substances, such as, for example, tubulin inhibitors, are only cytotoxic if the cells are not arrested and the cell cycle is in progress. […] This underlines the arrest of the cell cycle in […] already found in the FACS analyses, and a cell cycle-specific action of the compounds tested.
The assay is carried out in 96-well plates. […] Comparison of the activity on induced and non-induced cells allows conclusions to be drawn about the mechanism of action (cell cycle specificity) of the therapeutics. Non-induced [sic] cells are sown at a cell count which is about four times higher than that of non-induced cells since, compared to non-induced cells, there is no further division during the assay (2×10^4 cells/well induced, about 0.6×10^4 cells/well not induced). The controls are untreated cells (+/− induction). Induction is carried out using 3 μM of muristerone A. On day 1, the cells are plated (+/− muristerone A) and incubated at 37° C. for 24 h. On day 2, the test substance is added (control DMSO) and incubation at 37° C. is continued for another 48 h, after which a standard XTT assay is carried out.

[4] = system: human glioma cell line U373; experiment: XTT cytotoxicity test, U373; conditions: U373 MG, 45 h, read-out: IC50 U373
rat glioma cell line C6 = experiment: XTT cytotoxicity test, C6; conditions: 45 h, read-out: IC50 C6
[5] = system: human glioblastoma cell line U373; experiment: Cell cycle analysis by FACS; conditions: U373, treated 24 h, FIG. 2
various glioma lines = experiment: XTT cytotoxicity test, various glioma lines; format: cell-based
Excerpt: The publication by M. Medarde et al. 1998, Eur. J. Med. Chem. Vol. 33, pp. 71-77 describes combretastatin analogs which have antitumor action in a proliferation assay with the tumor cell lines P388 (leukemia, murine), A549 (pulmonary carcinoma, human), HT29 (colon carcinoma, human) and Mel28 (melanoma, human).

[6] = read-out: Zytotoxizität KB/HeLa IC50
[7] = XTT test, 45 h incubation, read-out: IC50 KB/HeLa

O=C(O)c1ccc(C(=O)c2cc3ccccc3[nH]2)cc1 [Example 107, 4-(1H-2-indolylcarbonyl)-1-benzenecarboxylic acid]
melting point: > 220 °C

COc1ccc2[nH]c(C(=O)c3ccc(Br)cc3)cc2c1 [Example D-65499, 5-methoxy-1H-2-indolyl(4-bromophenyl)-1-methanone]
IC50 [1, 6]: ~0.3 mg/L | IC50 (bovine brain tubulin): 4.3 µM

COc1ccc2[nH]c(C(=O)c3ccc(Cl)cc3)cc2c1 [Example D-65500, 5-methoxy-1H-2-indolyl(4-chlorophenyl)-1-methanone]
IC50 [1, 6]: ~1 mg/L | IC50 (bovine brain tubulin): 4.98 µM

COc1ccc2[nH]c(C(=O)c3ccccc3OC)cc2c1 [Example D-68143, 5-methoxy-1H-2-indolyl(2-methoxyphenyl)-1-methanone]
IC50 [2]: 0.023 µM | IC50 [3]: 0.073 µM | IC50 (RKO p21 cells): 0.028 µM | IC50 [1, 7]: 0.035 µM | IC50 [4]: 0.029 µM | IC50 (bovine brain tubulin): 2.12 µM | IC50 (rat glioma cell line C6): 0.098 µM

COc1cccc(C(=O)c2cc3cc(OC)ccc3[nH]2)c1 [Example D-68144, 5-methoxy-1H-2-indolyl(3-methoxyphenyl)-1-methanone]
IC50 [2]: 0.0083 µM | IC50 [3]: 0.015 µM | IC50 (RKO p21 cells): 0.0036 µM | IC50 [1, 7]: 0.0066 µM | IC50 [4]: 0.005 µM | cells in the metaphase of mitotic division (M-phase) [5]: concentration-dependent arrest of the cells in mitosis | IC50 (bovine brain tubulin): 2.42 µM | IC50 (rat glioma cell line C6): 0.0096 µM | factor more active than compound 4d (various glioma lines; compared with Medarde et al.): 40-60 | IC50 (various glioma lines; read-out: inhibitory activity IC50 in various glioma lines): 0.005 to 0.015 µM

COc1ccc2[nH]c(C(=O)c3cc(OC)c(OC)c(OC)c3)cc2c1 [Example D-68150, 5-methoxy-1H-2-indolyl(3,4,5-trimethoxyphenyl)-1-methanone]
IC50 [2]: 0.0194 µM | IC50 [3]: 0.0185 µM | IC50 (RKO p21 cells): 0.0168 µM | IC50 ([1]; 45 h, read-out: IC50 KB/HeLa): 0.032 µM | IC50 [1, 6]: 0.032 µM | IC50 [4]: 0.0197 µM | cells in the metaphase of mitotic division (M-phase) [5]: concentration-dependent arrest of the cells in mitosis | IC50 (bovine brain tubulin): 10 µM | IC50 (rat glioma cell line C6): 0.077 µM

COc1ccc(C(=O)c2cc3cc(OC)ccc3[nH]2)c(OC)c1 [Example D-68172, 5-methoxy-1H-2-indolyl(2,4-dimethoxyphenyl)-1-methanone]
IC50 [2]: 0.119 µM | IC50 [3]: 0.33 µM | IC50 (RKO p21 cells): 0.136 µM | IC50 [1, 7]: 0.107 µM | IC50 [4]: 0.075 µM | IC50 (bovine brain tubulin): < 10 µM | IC50 (rat glioma cell line C6): 0.18 µM

COc1ccc2[nH]c(C(=O)c3cccc4ccccc34)cc2c1 [Example D-68213, 5-methoxy-1H-2-indolyl(1-naphthalenyl)-1-methanone]
IC50 [1, 6]: ~0.1 mg/L | IC50 (bovine brain tubulin): 2.93 µM

COc1ccc2[nH]c(C(=O)c3ccc(C)cc3)cc2c1 [Example D-68887, 5-methoxy-1H-2-indolyl(4-methylphenyl)-1-methanone]
IC50 [1, 6]: ~0.3 mg/L | IC50 (bovine brain tubulin): 1.5 µM

COc1ccc2[nH]c(C(=O)c3ccccc3F)cc2c1 [Example D-68888, 2-fluorophenyl(5-methoxy-1H-2-indolyl)-1-methanone]
IC50 [1, 6]: ~0.2 mg/L | IC50 (bovine brain tubulin): 1.03 µM

COc1ccc2[nH]c(C(=O)c3cccc(C(F)(F)F)c3)cc2c1 [Example D-68901, 5-methoxy-1H-2-indolyl(3-trifluoromethylphenyl)-1-methanone]
IC50 [1, 6]: ~0.01 mg/L | IC50 (bovine brain tubulin): 1.46 µM

COc1ccc2[nH]c(C(=O)c3cc(C)ccc3C)cc2c1 [Example D-68906, 5-methoxy-1H-2-indolyl(2,5-dimethylphenyl)-1-methanone]
IC50 [1, 6]: ~0.2 mg/L | IC50 (bovine brain tubulin): 5.19 µM

COc1ccc2[nH]c(C(=O)c3ccc(Cl)c(Cl)c3)cc2c1 [Example D-70026, 5-methoxy-1H-2-indolyl(3,4-dichlorophenyl)-1-methanone]
IC50 [1, 6]: ~0.1 mg/L | melting point: 190 to 192 °C | IC50 (bovine brain tubulin): 2.49 µM

COc1ccc2[nH]c(C(=O)c3ccccc3C)cc2c1 [Example D-70038, 5-methoxy-1H-2-indolyl(2-methylphenyl)-1-methanone]
IC50 [1, 6]: ~0.5 mg/L | IC50 (bovine brain tubulin): 4.84 µM

NCOc1c(C(=O)c2ccccc2N)[nH]c2ccc(O)cc12 [Example D-70046]
IC50 [1, 6]: ~2 mg/L | IC50 (bovine brain tubulin): 2.44 µM

COc1ccc2[nH]c(C(=O)c3ccccc3N)cc2c1 [Example D-70047, 5-methoxy-1H-2-indolyl(2-aminophenyl)-1-methanone]
IC50 [1, 6]: ~2 mg/L | IC50 (bovine brain tubulin): 6.68 µM

COc1ccccc1C(=O)c1cc2cc(C)ccc2[nH]1 [Example D-70289, 5-methyl-1H-2-indolyl(2-methoxyphenyl)-1-methanone]
IC50 [1, 6]: ~0.1 mg/L | IC50 (bovine brain tubulin): 3.54 µM

COc1cc(OC)cc(C(=O)c2cc3cc(C)ccc3[nH]2)c1 [Example D-70316, 5-methyl-1H-2-indolyl(3,5-dimethoxyphenyl)-1-methanone]
IC50 (RKO p21 cells): 0.018 µM | melting point: 141 to 142 °C | IC50 (bovine brain tubulin): 0.81 µM

COc1ccc2[nH]c(C(=O)c3cccs3)cc2c1 [Example D-70438]
IC50 (bovine brain tubulin): 2.7 µM

COc1ccc2[nH]c(C(=O)c3cccc(N)c3)cc2c1 [Example D-81167, 5-methoxy-1H-2-indolyl(3-aminophenyl)-1-methanone]
IC50 [1, 6]: 0.089 mg/L | IC50 (bovine brain tubulin): 0.99 µM

COc1ccc2[nH]c(C(=O)c3cccc(F)c3)cc2c1 [Example D-81187]
IC50 (RKO p21 cells): 0.0168 µM | IC50 (bovine brain tubulin): 0.39 µM

COc1ccc2[nH]c(C(=O)c3cccc(OC(F)(F)F)c3)cc2c1 [Example D-81194]
IC50 [1, 6]: 0.086 mg/L | IC50 (bovine brain tubulin): 1.74 µM

COc1ccc2[nH]c(C(=O)c3cccc(SC(F)F)c3)cc2c1 [Example D-81196]
IC50 [1, 6]: 0.134 mg/L | IC50 (bovine brain tubulin): 2.05 µM

COc1ccc2[nH]c(C(=O)c3cccc(O)c3)cc2c1 [Example D-81755]
IC50 [1, 6]: 0.063 mg/L | IC50 (bovine brain tubulin): 0.66 µM

COc1ccc2[nH]c(C(=O)c3cccc(OC(=O)CCO)c3)cc2c1 [Example D-81756]
IC50 [1, 6]: 0.093 mg/L | IC50 (bovine brain tubulin): 0.85 µM

CC(=O)O[C@H]1C(=O)[C@@]2(C)[C@H]([C@H](OC(=O)c3ccccc3)[C@]3(O)C[C@H](OC(=O)[C@H](O)[C@@H](NC(=O)c4ccccc4)c4ccccc4)C(C)=C1C3(C)C)[C@]1(OC(C)=O)CO[C@@H]1C[C@@H]2O [Taxol, reference compound]
IC50 (RKO p21 cells): 0.0078 mg/L

CC[C@]1(O)C[C@H]2CN(CCc3c([nH]c4ccccc34)[C@@](C(=O)OC)(c3cc4c(cc3OC)N(C=O)[C@H]3[C@@](O)(C(=O)OC)[C@H](OC(C)=O)[C@]5(CC)C=CCN6CC[C@]43[C@@H]65)C2)C1 [Vincristin, Vincristine, reference compound]
IC50 (bovine brain tubulin): 0.09 µM
